ChEMBL document CHEMBL1143063, “Discovery of 3-piperidinyl-1-cyclopentanecarboxamide as a novel scaffold for highly potent CC chemokine receptor 2 antagonists” (J Med Chem, 2007)
Values belong to the molecule of their own block, whether it stands above or below them. Activity calls are given as the source filed them. The rule behind the calls is not given here.

Columns and labels:
[1] = target: T1, C-C chemokine receptor type 2 (Homo sapiens, UniProt P41597); assay: Displacement of [125]hMCP1 from human CCR2 receptor expressed in human monocytes at 1 uM; format: cell-based
Target sequence in this assay (P41597 whole entry, looked up): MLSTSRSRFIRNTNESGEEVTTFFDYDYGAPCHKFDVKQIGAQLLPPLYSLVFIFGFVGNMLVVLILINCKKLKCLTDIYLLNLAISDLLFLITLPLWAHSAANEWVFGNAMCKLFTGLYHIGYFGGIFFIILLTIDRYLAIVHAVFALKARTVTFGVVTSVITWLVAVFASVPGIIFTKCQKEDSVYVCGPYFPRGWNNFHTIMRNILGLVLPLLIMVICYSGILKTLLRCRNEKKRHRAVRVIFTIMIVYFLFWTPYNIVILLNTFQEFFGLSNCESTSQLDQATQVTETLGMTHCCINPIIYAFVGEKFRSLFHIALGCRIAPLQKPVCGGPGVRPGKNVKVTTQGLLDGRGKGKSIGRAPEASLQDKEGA

[2] = target: T1, C-C chemokine receptor type 2; assay: Displacement of [125]hMCP1 from human CCR2 receptor expressed in human monocytes; format: cell-based
[3] = Oral bioavailability in rat; format: ADME, organism-based; conditions: in vivo
[4] = Volume of distribution in rat; format: ADME, organism-based; conditions: in vivo, read-out: Vss
[5] = target: C-C chemokine receptor type 2 (Mus musculus, UniProt P51683); assay: (§1) Displacement of [125]hMCP1 from mouse CCR2 receptor expressed in CHO cells; format: cell-based
[6] = target: C-C chemokine receptor type 5 (Homo sapiens, UniProt P51681); assay: Displacement of MIP1alpha from CCR5 receptor
[7] = Half life in rat; format: ADME, organism-based; conditions: in vivo
[8] = Plasma clearance in rat; format: ADME, organism-based
[9] = target: C-C chemokine receptor type 2 (Mus musculus) (UniProt P51683); assay: Displacement of [125]hMCP1 from mouse CCR2 receptor expressed in CHO cells at 1 uM; format: cell-based
[10] = target: T1, C-C chemokine receptor type 2; assay: Antagonist activity against human CCR2 receptor assessed as inhibition of MCP1-induced calcium flux in human monocytes; format: functional, cell-based
Target sequence in this assay (P41597 whole entry): as the sequence (P41597 whole entry, looked up) above

[11] = target: C-C chemokine receptor type 2 (Mus musculus) (UniProt P51683); assay: as §1; format: cell-based

C-C chemokine receptor type 2 (Mus musculus), sequence (P51683 whole entry, looked up): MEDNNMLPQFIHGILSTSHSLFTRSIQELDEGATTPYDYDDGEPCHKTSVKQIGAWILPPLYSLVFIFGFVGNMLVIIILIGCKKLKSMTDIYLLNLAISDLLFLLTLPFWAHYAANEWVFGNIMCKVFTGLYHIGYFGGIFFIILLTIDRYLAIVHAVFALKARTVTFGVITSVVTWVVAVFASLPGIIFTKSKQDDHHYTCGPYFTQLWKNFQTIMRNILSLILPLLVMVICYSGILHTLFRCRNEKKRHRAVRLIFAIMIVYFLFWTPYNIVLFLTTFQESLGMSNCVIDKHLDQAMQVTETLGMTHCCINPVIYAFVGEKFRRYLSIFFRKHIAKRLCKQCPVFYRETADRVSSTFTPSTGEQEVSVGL
C-C chemokine receptor type 2 (Mus musculus, UniProt P51683), sequence (P51683 whole entry): as the sequence (P51683 whole entry, looked up) above
C-C chemokine receptor type 5, sequence (P51681 whole entry): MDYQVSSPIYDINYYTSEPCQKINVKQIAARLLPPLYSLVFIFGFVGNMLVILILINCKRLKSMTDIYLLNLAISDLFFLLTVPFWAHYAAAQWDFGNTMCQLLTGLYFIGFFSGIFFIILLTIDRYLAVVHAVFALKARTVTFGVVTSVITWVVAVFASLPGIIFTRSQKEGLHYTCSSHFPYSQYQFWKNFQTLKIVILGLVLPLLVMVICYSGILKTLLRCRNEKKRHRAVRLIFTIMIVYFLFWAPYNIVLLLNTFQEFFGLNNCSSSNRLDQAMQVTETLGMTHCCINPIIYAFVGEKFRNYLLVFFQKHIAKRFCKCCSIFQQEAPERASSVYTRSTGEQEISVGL

SMILES: O=C1C(CCN2CCC(c3ccccc3)CC2)CCCN1Cc1cc(C(F)(F)F)cc(C(F)(F)F)c1 (centres undefined)
Activity [2]: inactive

SMILES: C[C@H]1CN([C@@H]2CC[C@](C)(C(=O)NCc3cc(C(F)(F)F)cc(C(F)(F)F)c3)C2)CC[C@@]12C=Cc1ccccc12
bioavailability [3]: 15%
Vd [4]: 6 L/kg
IC50 [5]: 130 nM
IC50 [2]: 1.3 nM
IC50 [6]: 630 nM
half-life [7]: 8.1 h
clearance [8]: 50 mL/min/kg

SMILES: C[C@]1(C(=O)NCc2cc(C(F)(F)F)cc(C(F)(F)F)c2)CC[C@@H](N2CCC3(C=Cc4ccccc43)CC2)C1
IC50 [2]: 47 nM
Activity [9]: 27%

SMILES: O=C1C(CCN2CCC(c3ccccc3)CC2)CCN1Cc1cc(C(F)(F)F)cc(C(F)(F)F)c1 (centres undefined)
Activity [2]: inactive

SMILES: C[C@H]1CN([C@@H]2CC[C@H](C(=O)NCc3cc(C(F)(F)F)cc(C(F)(F)F)c3)C2)CC[C@@]12C=Cc1ccccc12
IC50 [10]: 2.3 nM
IC50 [2]: 1.4 nM
Activity [9]: 27%

SMILES: CC1C[C@@H](N2CC[C@@]3(C=Cc4ccccc43)[C@@H](C)C2)C[C@H]1C(=O)NCc1cc(C(F)(F)F)cc(C(F)(F)F)c1 (some centres undefined)
Activity [11]: inactive
IC50 [2]: > 1000 nM

Further lines, results first:

Activity [1]: 25%
SMILES: O=C(NCc1cc(C(F)(F)F)cc(C(F)(F)F)c1)[C@@H]1CC[C@@H](N2CCC(c3ccccc3)CC2)C1

IC50 [2]: 36 nM
SMILES: O=C(NCc1cc(C(F)(F)F)cc(C(F)(F)F)c1)[C@H]1CC[C@@H](N2CCC(c3ccccc3)CC2)C1

Activity [1]: 23%
SMILES: O=C(NCc1cc(C(F)(F)F)cc(C(F)(F)F)c1)C1CCCC(N2CCC(c3ccccc3)CC2)C1 (centres undefined)

IC50 [2]: 65 nM
SMILES: O=C(NCc1cc(C(F)(F)F)cc(C(F)(F)F)c1)C1CCC(N2CCC(c3ccccc3)CC2)C1 (centres undefined)

Activity [1]: 44%
SMILES: O=C(NCc1cc(C(F)(F)F)cc(C(F)(F)F)c1)[C@H]1CC[C@H](N2CCC(c3ccccc3)CC2)C1

Activity [1]: 30%
SMILES: O=C(NCc1cc(C(F)(F)F)cc(C(F)(F)F)c1)[C@@H]1CC[C@H](N2CCC(c3ccccc3)CC2)C1

Activity [11]: inactive
IC50 [2]: 7.5 nM
SMILES: O=C(NCc1cc(C(F)(F)F)cc(C(F)(F)F)c1)[C@H]1CC[C@@H](N2CCC3(C=Cc4ccccc43)CC2)C1
